Values of other authors in PMC6376154 (International Journal for Parasitology: Drugs and Drug …, 2019).
Read-outs that look alike come from different tables or passages of the source.

Test system: P. falciparum 3D7 asexual blood stage
Conditions: cited from earlier work
[1] = MMV Malaria Box data sheet (supplement mmc2.xls), ref MMV data sheet, read-out: EC50_nM
[2] = MMV Malaria Box sheet, ref MMV data sheets, read-out: EC50_nM
[3] = MMV Malaria Box data sheet, ref MMV data sheets, read-out: EC50_nM
[4] = MMV Malaria Box sheet, ref MMV data sheets
[5] = source GNF, ref ChEMBL_NTD, read-out: CHEMBL EC50
[6] = MMV Malaria Box data sheet, ref MMV data sheets
[7] = source GSK, ref ChEMBL_NTD, read-out: CHEMBL EC50
[8] = MMV Malaria Box data sheet (supplement mmc2.xls), ref MMV data sheet
[9] = value(s) per source (GSK, GNF, StJude), separated by semicolon, ref ChEMBL-NTD, read-out: CHEMBL EC50
[10] = source StJude, ref ChEMBL_NTD, read-out: CHEMBL EC50
[11] = ChEMBL-NTD value per source (GNF, GSK, StJude), several values in a cell follow the order of the sources, read-out: CHEMBL EC50

Q: For `CC(C)CNC(=O)c1c(N)n(CCc2ccccc2F)c2nc3ccccc3nc12` [MMV396744], which EC50 [1] is on record?
A: The EC50 was 832 nM.

Q: With `COc1ccc2c(c1)C1(Nc3ccccc3-c3nc4ccccc4n31)C(=O)N2` (stereo not shown) [MMV396749] as the compound, how does the EC50 [2] read?
A: Its EC50 is 928 nM.

Q: For `CC(C)(C)CC(C)(C)NCC(O)COc1ccc(Cl)cc1Cl` (stereo not shown) [MMV396794], which EC50 [1] is on record?
A: Its EC50 is 1160 nM.

Q: For `COc1ccc(-c2c(C)nn3c(N)c(C#N)cnc23)cc1OC` [MMV396797], which EC50 [3] is on record?
A: The EC50 was 477 nM.

Q: For `Cc1cccc(-n2ncc3c(=O)[nH]c(-n4nc(C)cc4NC(=O)c4cc5ccccc5o4)nc32)c1` [MMV403679], which EC50 [1] is on record?
A: Its EC50 is 929 nM.

Q: Which “percent_inh @ 5 uM” value [4] does the source give for `CCN(CC)CCCNc1ccnc2cc3ccccc3cc12` [MMV665783] here?
A: The value was 90%.

Q: What about the EC50 [5] of the same compound?
A: The EC50 was 33.8 nM.

Q: What does the source list for `CC(C)(C)c1ccc(O)c(CNC2CCCCC2)c1` [MMV665785]?
A: percent_inh @ 5 uM [6]: 96%; EC50 [3]: 161 nM; EC50 [5]: 250 nM; EC50 [7]: 264 nM

Q: Which “percent_inh @ 5 uM” value [4] does the source give for `O=c1cc(NC2CCN(CCCc3ccccc3)CC2)c2cc(Cl)ccc2o1` [MMV665786] here?
A: The value was 97%.

Q: And the EC50 [2]?
A: Its EC50 is 846 nM.

Q: And the EC50 [5]?
A: The EC50 was 408 nM.

Q: With `CC(NCc1ccccc1)c1cc(Cl)ccc1O` (stereo not shown) [MMV665789] as the compound, how does the “percent_inh @ 5 uM” value [8] read?
A: The value was 95%.

Q: And the EC50 [1]?
A: The EC50 was 603 nM.

Q: What about the EC50 [9] of the same compound?
A: The EC50 was 592 nM.

Q: With `FC(F)(F)c1cccc(Nc2nc3ccccc3nc2Nc2cccc(C(F)(F)F)c2)c1` [MMV665794] as the compound, how does the “percent_inh @ 5 uM” value [4] read?
A: The value was 99%.

Q: And the EC50 [2]?
A: Its EC50 is 313 nM.

Q: And the EC50 [7]?
A: Its EC50 is 137 nM.

Q: Which results are given for `CCOc1cc(Br)c(C(C)NC(=O)c2cccc(OC)c2)cc1OCC` (stereo not shown) [MMV665796]?
A: percent_inh @ 5 uM [8]: 96%; EC50 [1]: 1430 nM; EC50 [9]: 168 nM

Q: Which “percent_inh @ 5 uM” value [4] does the source give for `CCCCOC(=O)c1ccc(Nc2cc(C)nc3ccc(OC)cc23)cc1` [MMV665797] here?
A: Its value is 99%.

Q: What about the EC50 [2] of the same compound?
A: The EC50 was 584 nM.

Q: And the EC50 [7]?
A: Its EC50 is 640 nM.

Q: Which “percent_inh @ 5 uM” value [8] does the source give for `FC(F)(F)c1cccc(Nc2nc(-c3ccccc3)nc3ncccc23)c1` [MMV665798] here?
A: The value was 74%.

Q: And the EC50 [9]?
A: Its EC50 is 802 nM.

Q: What does the source list for `COc1ccc(C(=O)Nc2ccc(Cl)cc2C(=O)Nc2ccncc2)cc1` [MMV665799]?
A: percent_inh @ 5 uM [8]: 93%; EC50 [9]: 822 nM

Q: Which “percent_inh @ 5 uM” value [8] does the source give for `CCOc1cc(Cl)c(C(C)NC(=O)c2cccc(OC)c2)cc1OCC` (stereo not shown) [MMV665803] here?
A: The value was 98%.

Q: And the EC50 [1]?
A: Its EC50 is 728 nM.

Q: What about the EC50 [9] of the same compound?
A: The EC50 was 956 nM.

Q: Which “percent_inh @ 5 uM” value [6] does the source give for `CCOc1ccc(-c2nonc2NC(=O)c2cccc(C)c2)cc1OCC` [MMV665805] here?
A: The value was 86%.

Q: What about the EC50 [3] of the same compound?
A: The EC50 was 117 nM.

Q: What about the EC50 [10] of the same compound?
A: Its EC50 is 61.9 nM.

Q: With `Cc1c(C)n(CC(O)CNC2CCCCC2C)c2ccccc12` (stereo not shown) [MMV665806] as the compound, how does the “percent_inh @ 5 uM” value [4] read?
A: The value was 96%.

Q: And the EC50 [2]?
A: Its EC50 is 769 nM.

Q: And the EC50 [10]?
A: The EC50 was 527 nM.

Q: With `O=C(Nc1cccc(C(F)(F)F)c1)c1cc(Cl)ccc1O` [MMV665807] as the compound, how does the “percent_inh @ 5 uM” value [8] read?
A: The value was 93%.

Q: What about the EC50 [9] of the same compound?
A: The EC50 was 973 nM.

Q: With `Oc1ccc(Br)cc1CN1CCN(Cc2ccc(Cl)cc2)CC1` [MMV665809] as the compound, how does the EC50 [11] read?
A: Its EC50 is 1480 nM.

Q: For `CCc1ccc(CNCC(O)c2ccccc2)cc1` (stereo not shown) [MMV665812], which EC50 [11] is on record?
A: Its EC50 is 2170 nM.

Q: For `CCOC(=O)c1cnc2ccc(OC)cc2c1NCc1ccccc1` [MMV665813], which EC50 [11] is on record?
A: Its EC50 is 2770 nM.

Q: Which results are given for `CC(C)(C)CC(C)(C)NCC(O)COc1ccc2c(c1)CCC2` (stereo not shown) [MMV665817]?
A: percent_inh @ 5 uM [6]: 78%; EC50 [10]: 4420 nM

Q: For `Cn1c(C(=O)c2cccc3ccccc23)nc2ccccc21` [MMV665824], which EC50 [11] is on record?
A: Its EC50 is 6.92 nM.

Q: Which results are given for `COc1cccc(NC(=O)Cn2c(C)c(C#N)c3ccccc32)c1` [MMV665826]?
A: percent_inh @ 5 uM [8]: 95%; EC50 [1]: 1090 nM

Q: Which “percent_inh @ 5 uM” value [6] does the source give for `CCOC(=O)c1cn(CC)c2cc(N3CCCCC3)c(F)cc2c1=O` [MMV665827] here?
A: Its value is 100%.

Q: What about the EC50 [3] of the same compound?
A: Its EC50 is 119 nM.

Q: What about the EC50 [5] of the same compound?
A: Its EC50 is 166 nM.

Q: And the EC50 [7]?
A: Its EC50 is 125 nM.

Q: For `CC1CC2=C(CC1CNCCCN(C)C)C(C)(C)CCC2` (stereo not shown) [MMV665830], which EC50 [11] is on record?
A: Its EC50 is 250 nM.

Q: Which results are given for `CCOC(=O)c1c(NC(=O)c2ccccc2)sc2c(O)c(CN(CC)CC)ccc12` [MMV665831]?
A: percent_inh @ 5 uM [6]: 96%; EC50 [3]: 205 nM; EC50 [5]: 267 nM; EC50 [7]: 969 nM

Q: With `O=C(Nc1ccc(-c2nc3ccccc3[nH]2)cc1)c1ccc(Cl)c(Cl)c1` [MMV665840] as the compound, how does the EC50 [11] read?
A: Its EC50 is 523 nM.

Q: What does the source list for `Oc1c2c(nc3ccccc13)CCCC2` [MMV665843]?
A: percent_inh @ 5 uM [4]: 82%; EC50 [5]: 628 nM

Q: Which “percent_inh @ 5 uM” value [6] does the source give for `Oc1ccc(Cl)cc1CNc1nc2ccccc2[nH]1` [MMV665850] here?
A: Its value is 95%.

Q: What about the EC50 [5] of the same compound?
A: Its EC50 is 921 nM.

Q: With `O=C(Nc1ccc(Cl)c(Cl)c1)Nc1ccc(Cl)c(Cl)c1` [MMV665852] as the compound, how does the EC50 [11] read?
A: Its EC50 is 1030 nM.

Q: With `CCOc1c(Cl)cc(CNC(C)C(O)c2ccccc2)cc1OC` (stereo not shown) [MMV665857] as the compound, how does the “percent_inh @ 5 uM” value [8] read?
A: The value was 98%.

Q: What about the EC50 [9] of the same compound?
A: Its EC50 is 1650 nM.

Q: For `CCCCNc1nc(NC(C)(C)C)nc(NC(C)(C)C)n1` [MMV665864], which EC50 [11] is on record?
A: The EC50 was 2160 nM.

Q: For `Cc1cc(Nc2ccc(C)c(Cl)c2)n2nc(C(F)(F)F)nc2n1` [MMV665874], which “percent_inh @ 5 uM” value [6] is on record?
A: Its value is 98%.

Q: And the EC50 [3]?
A: Its EC50 is 6.71 nM.

Q: What about the EC50 [7] of the same compound?
A: Its EC50 is 15.8 nM.
